Data taken from US10364247B2, “Preparation and use of novel protein kinase inhibitors” (Ruijin Hospital Affiliated to Shanghai Jiao Tong University …, priority 2015, dated 2019).

Experiments:
Assay in all cases: KINOMEscan competition binding
[1] = molecular target: ABL1(E255K)-phosphorylated (Homo sapiens, UniProt P00519, E255K); settings: read-out: Percent Control
In short: (§1)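 % Ctrl (lower = stronger binding) reflects competition between 10 μM compound and an immobilized ligand targeting the active site.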

[2] = molecular target: T1, ABL1(H396P)-nonphosphorylated (Homo sapiens, UniProt P00519, H396P); settings: read-out: Percent Control
T1 construct: purchased KINOMEscan (panel service)
In short: as §1

[3] = molecular target: T2, ABL1(H396P)-phosphorylated (Homo sapiens, UniProt P00519, H396P); settings: read-out: Percent Control
T2 construct: purchased KINOMEscan (panel service)
In short: as §1

[4] = molecular target: ABL1(Q252H)-phosphorylated (Homo sapiens, UniProt P00519, Q252H); settings: read-out: Percent Control
In short: as §1

ABL1-nonphosphorylated = ABL1-nonphosphorylated (Homo sapiens, UniProt P00519); settings: read-out: Percent Control
In short: as §1

ALK = molecular target: T3, ALK (Homo sapiens, UniProt Q9UM73); settings: read-out: Percent Control
T3 construct: purchased KINOMEscan (screening service)
In short: as §1

ASK2 = molecular target: T4, ASK2 (Homo sapiens, UniProt O95382); settings: ASK2 (Entrez MAP3K6), read-out: Percent Control
T4 construct: purchased KINOMEscan (screening service)
In short: as §1

BRAF = BRAF (Homo sapiens, UniProt P15056); settings: read-out: Percent Control
In short: as §1

CDC2L2 = molecular target: T5, CDC2L2 (Homo sapiens, UniProt Q9UQ88); settings: read-out: Percent Control
T5 construct: purchased KINOMEscan (screening platform)
In short: as §1

CTK = CTK (Homo sapiens, UniProt P42679); settings: CTK (Entrez MATK), read-out: Percent Control
In short: as §1

[5] = molecular target: EGFR(L747-E749del, A750P) (Homo sapiens, UniProt P00533, A750P/DEL747-749); settings: read-out: Percent Control
In short: as §1

EPHA1 = EPHA1 (Homo sapiens, UniProt P21709); settings: read-out: Percent Control
In short: as §1

EPHA7 = EPHA7 (Homo sapiens, UniProt Q15375); settings: read-out: Percent Control
In short: as §1

EPHB1 = molecular target: T6, EPHB1 (Homo sapiens, UniProt P54762); settings: read-out: Percent Control
T6 construct: purchased KINOMEscan (panel service)
In short: as §1

EPHB4 = EPHB4 (Homo sapiens, UniProt P54760); settings: read-out: Percent Control
In short: as §1

ERBB2 = ERBB2 (Homo sapiens, UniProt P04626); settings: read-out: Percent Control
In short: as §1

FLT3(D835H) = FLT3(D835H) (Homo sapiens, UniProt P36888, D835H); settings: read-out: Percent Control
In short: as §1

IKK-beta = molecular target: T7, IKK-beta (Homo sapiens, UniProt O14920); settings: IKK-beta (Entrez IKBKB), read-out: Percent Control
T7 construct: purchased KINOMEscan (screening service)
In short: as §1

[6] = molecular target: T8, JAK2(JH1domain-catalytic) (Homo sapiens, UniProt O60674); settings: read-out: Percent Control
T8 construct: JAK2(JH1domain-catalytic)
In short: as §1

JNK1 = molecular target: T9, JNK1 (Homo sapiens, UniProt P45983); settings: JNK1 (Entrez MAPK8), read-out: Percent Control
T9 construct: purchased KINOMEscan (screening platform)
In short: as §1

KIT(L576P) = KIT(L576P) (Homo sapiens, UniProt P10721, L576P); settings: read-out: Percent Control
In short: as §1

KIT(V559D) = KIT(V559D) (Homo sapiens, UniProt P10721, V559D); settings: read-out: Percent Control
In short: as §1

KIT(V559D, T670I) = KIT(V559D, T670I) (Homo sapiens, UniProt P10721, T670I/V559D); settings: read-out: Percent Control
In short: as §1

MAP3K1 = molecular target: T10, MAP3K1 (Homo sapiens, UniProt Q13233); settings: read-out: Percent Control
T10 construct: purchased KINOMEscan (screening platform)
In short: as §1

MAP3K15 = molecular target: T11, MAP3K15 (Homo sapiens, UniProt Q6ZN16); settings: read-out: Percent Control
T11 construct: purchased KINOMEscan (screening service)
In short: as §1

MLK3 = MLK3 (Homo sapiens, UniProt Q16584); settings: MLK3 (Entrez MAP3K11), read-out: Percent Control
In short: as §1

RAF1 = molecular target: T12, RAF1 (Homo sapiens, UniProt P04049); settings: read-out: Percent Control
T12 construct: purchased KINOMEscan (screening service)
In short: as §1

ROS1 = molecular target: T13, ROS1 (Homo sapiens, UniProt P08922); settings: read-out: Percent Control
T13 construct: purchased KINOMEscan (screening service)
In short: as §1

SIK = SIK (Homo sapiens, UniProt P57059); settings: SIK (Entrez SIK1), read-out: Percent Control
In short: as §1

STK36 = STK36 (Homo sapiens, UniProt Q9NRP7); settings: read-out: Percent Control
In short: as §1

SYK = SYK (Homo sapiens, UniProt P43405); settings: read-out: Percent Control
In short: as §1

TAOK3 = molecular target: T14, TAOK3 (Homo sapiens, UniProt Q9H2K8); settings: read-out: Percent Control
T14 construct: purchased KINOMEscan (screening platform)
In short: as §1

TNIK = TNIK (Homo sapiens, UniProt Q9UKE5); settings: read-out: Percent Control
In short: as §1

TNK1 = molecular target: T15, TNK1 (Homo sapiens, UniProt Q13470); settings: read-out: Percent Control
T15 construct: purchased KINOMEscan (screening service)
In short: as §1

TRKC = molecular target: T16, TRKC (Homo sapiens, UniProt Q16288); settings: TRKC (Entrez NTRK3), read-out: Percent Control
T16 construct: purchased KINOMEscan (screening service)
In short: as §1

ZAK = ZAK (Homo sapiens, UniProt Q9NYL2); settings: read-out: Percent Control
In short: as §1

Sequence of KIT(V559D, T670I) (P10721 26-976 V559D/T670I): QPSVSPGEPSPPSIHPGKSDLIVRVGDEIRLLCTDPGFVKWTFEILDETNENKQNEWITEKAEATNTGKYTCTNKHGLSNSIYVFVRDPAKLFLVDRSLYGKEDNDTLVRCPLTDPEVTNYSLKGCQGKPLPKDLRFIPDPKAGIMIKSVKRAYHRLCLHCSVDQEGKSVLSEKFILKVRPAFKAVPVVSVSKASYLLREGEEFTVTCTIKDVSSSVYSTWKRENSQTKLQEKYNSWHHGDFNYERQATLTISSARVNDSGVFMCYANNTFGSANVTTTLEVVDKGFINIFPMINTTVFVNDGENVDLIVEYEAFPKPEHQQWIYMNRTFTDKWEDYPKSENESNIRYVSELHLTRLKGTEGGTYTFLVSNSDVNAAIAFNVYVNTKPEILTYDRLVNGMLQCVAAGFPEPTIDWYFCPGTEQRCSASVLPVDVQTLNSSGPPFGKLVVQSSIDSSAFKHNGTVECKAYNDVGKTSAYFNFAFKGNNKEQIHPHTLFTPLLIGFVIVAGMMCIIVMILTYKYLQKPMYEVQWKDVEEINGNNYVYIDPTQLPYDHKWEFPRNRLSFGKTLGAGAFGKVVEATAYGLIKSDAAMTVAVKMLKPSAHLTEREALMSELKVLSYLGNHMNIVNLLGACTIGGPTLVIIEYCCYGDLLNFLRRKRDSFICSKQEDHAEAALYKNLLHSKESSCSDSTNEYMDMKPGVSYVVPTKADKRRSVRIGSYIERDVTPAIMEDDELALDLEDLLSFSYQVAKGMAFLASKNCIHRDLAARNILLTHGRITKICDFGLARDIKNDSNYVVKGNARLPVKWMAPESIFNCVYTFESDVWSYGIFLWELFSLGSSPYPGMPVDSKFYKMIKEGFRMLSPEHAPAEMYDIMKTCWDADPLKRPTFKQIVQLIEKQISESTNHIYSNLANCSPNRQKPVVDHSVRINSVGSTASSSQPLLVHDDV
Sequence of EPHA1 (P21709 26-976): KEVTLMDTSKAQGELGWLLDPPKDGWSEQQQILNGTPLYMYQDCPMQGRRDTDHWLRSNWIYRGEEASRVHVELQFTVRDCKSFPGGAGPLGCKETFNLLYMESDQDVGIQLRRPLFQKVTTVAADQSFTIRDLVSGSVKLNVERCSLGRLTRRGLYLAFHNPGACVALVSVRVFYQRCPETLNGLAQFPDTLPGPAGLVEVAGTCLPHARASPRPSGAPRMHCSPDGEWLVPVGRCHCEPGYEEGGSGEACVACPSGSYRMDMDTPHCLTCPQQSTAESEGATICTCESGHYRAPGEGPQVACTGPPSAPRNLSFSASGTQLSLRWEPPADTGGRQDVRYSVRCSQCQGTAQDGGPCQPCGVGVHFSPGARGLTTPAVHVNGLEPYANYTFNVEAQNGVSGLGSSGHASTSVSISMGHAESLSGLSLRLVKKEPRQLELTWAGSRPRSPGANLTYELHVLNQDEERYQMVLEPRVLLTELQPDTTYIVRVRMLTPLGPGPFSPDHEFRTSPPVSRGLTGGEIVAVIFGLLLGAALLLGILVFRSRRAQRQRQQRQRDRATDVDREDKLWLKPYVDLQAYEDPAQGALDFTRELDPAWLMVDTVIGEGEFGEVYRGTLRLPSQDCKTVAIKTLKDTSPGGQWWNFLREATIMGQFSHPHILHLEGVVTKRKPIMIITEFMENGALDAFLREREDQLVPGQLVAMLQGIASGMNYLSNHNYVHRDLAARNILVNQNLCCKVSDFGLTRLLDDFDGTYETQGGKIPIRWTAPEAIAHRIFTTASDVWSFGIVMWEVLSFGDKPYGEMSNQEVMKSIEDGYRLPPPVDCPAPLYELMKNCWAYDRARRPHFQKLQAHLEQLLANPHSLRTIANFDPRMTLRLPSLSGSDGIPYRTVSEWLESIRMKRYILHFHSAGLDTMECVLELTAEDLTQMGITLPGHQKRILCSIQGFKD
Sequence of EPHB4 (P54760 16-987): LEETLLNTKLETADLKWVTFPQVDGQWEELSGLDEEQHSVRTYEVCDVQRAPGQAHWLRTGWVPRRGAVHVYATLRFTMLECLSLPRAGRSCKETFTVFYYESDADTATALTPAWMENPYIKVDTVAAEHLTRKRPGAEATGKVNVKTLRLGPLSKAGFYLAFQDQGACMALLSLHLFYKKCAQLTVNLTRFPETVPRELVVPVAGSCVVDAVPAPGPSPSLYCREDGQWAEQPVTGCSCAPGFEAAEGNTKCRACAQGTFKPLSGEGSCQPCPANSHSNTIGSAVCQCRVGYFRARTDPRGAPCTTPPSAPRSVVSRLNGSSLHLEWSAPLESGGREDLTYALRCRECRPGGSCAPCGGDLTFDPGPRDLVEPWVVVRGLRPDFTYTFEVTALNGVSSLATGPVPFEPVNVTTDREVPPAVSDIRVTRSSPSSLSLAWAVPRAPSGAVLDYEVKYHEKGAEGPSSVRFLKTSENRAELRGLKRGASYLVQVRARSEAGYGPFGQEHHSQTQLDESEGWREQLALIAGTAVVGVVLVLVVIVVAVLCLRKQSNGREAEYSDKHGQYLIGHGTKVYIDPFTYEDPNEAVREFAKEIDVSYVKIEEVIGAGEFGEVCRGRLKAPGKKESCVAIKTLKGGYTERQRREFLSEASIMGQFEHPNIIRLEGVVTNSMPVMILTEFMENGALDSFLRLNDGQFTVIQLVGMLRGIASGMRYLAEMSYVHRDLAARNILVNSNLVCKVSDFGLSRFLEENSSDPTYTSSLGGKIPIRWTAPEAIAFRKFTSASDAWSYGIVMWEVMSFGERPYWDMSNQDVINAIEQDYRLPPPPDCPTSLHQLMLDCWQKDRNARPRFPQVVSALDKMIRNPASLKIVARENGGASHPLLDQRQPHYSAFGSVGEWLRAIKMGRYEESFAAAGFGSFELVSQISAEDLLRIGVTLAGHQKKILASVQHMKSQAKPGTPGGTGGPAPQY
T10 sequence (Q13233 whole entry): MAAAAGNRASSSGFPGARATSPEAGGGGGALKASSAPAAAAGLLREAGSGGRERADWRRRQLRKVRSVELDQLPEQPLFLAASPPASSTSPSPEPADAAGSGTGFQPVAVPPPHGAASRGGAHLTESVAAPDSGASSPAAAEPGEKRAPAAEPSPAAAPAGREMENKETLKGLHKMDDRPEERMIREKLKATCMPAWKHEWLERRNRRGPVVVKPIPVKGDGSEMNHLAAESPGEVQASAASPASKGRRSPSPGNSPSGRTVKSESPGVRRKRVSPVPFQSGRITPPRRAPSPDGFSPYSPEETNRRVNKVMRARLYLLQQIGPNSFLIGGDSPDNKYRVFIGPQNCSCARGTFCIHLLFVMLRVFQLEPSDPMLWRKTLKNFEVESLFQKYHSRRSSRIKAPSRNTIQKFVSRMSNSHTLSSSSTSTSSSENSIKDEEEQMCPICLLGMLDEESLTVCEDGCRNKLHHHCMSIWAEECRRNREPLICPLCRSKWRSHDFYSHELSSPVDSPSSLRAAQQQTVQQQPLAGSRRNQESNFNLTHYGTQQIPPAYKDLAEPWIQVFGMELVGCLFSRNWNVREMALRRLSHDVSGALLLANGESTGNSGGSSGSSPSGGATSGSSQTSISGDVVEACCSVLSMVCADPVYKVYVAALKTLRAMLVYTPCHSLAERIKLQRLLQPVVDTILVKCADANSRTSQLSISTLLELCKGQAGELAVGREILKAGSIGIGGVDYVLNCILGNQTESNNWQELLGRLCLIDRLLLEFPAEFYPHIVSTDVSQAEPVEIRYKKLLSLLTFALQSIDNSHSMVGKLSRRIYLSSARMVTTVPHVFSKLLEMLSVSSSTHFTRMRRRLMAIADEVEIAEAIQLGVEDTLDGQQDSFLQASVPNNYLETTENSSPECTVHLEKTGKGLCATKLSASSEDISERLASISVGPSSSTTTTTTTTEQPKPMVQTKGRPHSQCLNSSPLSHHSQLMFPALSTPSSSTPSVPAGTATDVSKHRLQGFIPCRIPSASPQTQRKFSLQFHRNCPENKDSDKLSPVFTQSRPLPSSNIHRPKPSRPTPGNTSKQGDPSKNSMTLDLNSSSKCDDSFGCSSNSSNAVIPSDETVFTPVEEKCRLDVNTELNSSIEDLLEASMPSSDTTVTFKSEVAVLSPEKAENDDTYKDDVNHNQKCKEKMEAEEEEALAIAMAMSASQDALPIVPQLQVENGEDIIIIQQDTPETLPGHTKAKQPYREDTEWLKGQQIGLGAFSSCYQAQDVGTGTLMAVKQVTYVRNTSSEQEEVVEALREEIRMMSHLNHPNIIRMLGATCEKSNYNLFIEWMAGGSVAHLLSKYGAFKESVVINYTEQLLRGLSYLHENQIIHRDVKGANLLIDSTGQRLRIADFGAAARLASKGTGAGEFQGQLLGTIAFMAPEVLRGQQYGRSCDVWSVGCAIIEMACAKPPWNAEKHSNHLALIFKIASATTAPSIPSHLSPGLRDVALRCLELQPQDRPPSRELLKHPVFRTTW
T12 sequence (P04049 whole entry): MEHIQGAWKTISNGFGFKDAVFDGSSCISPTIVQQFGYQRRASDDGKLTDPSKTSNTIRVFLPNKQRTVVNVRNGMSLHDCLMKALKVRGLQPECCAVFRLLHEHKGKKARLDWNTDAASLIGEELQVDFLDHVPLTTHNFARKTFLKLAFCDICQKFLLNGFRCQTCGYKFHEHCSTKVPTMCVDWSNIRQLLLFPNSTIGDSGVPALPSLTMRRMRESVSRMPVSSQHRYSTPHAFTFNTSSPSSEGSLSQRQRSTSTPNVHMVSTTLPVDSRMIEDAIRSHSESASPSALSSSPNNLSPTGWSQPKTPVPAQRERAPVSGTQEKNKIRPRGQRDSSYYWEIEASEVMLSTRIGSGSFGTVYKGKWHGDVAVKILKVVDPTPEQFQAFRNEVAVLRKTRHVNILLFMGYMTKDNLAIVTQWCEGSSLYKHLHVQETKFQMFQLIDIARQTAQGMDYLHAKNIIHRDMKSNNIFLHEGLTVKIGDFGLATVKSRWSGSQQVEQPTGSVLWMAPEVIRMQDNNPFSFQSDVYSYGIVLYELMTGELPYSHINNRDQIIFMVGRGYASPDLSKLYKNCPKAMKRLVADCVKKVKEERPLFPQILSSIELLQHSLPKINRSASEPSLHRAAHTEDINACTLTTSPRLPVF
Sequence of KIT(V559D) (P10721 26-976 V559D): as the sequence (P10721 26-976 V559D/T670I) above, with I645T counted along it
Sequence of KIT(L576P) (P10721 26-976 L576P): as the sequence (P10721 26-976 V559D/T670I) above, with D534V, L551P, I645T counted along it

Cc1ccc(Nc2ncc3c(n2)N(C)CN(c2cc(NC(=O)c4cccc(C(F)(F)F)c4)ccc2C)C3)cn1 [IA-9, N-(4-methyl-3-(1-methyl-7-((6-methylpyridin-3-yl)amino)-1,4-dihydropyrimido[4,5-d]pyrimidin-3(2H)-yl)phenyl)-3-(trifluoromethyl)benzamide]
remaining binding at 10 µM [1]: 1.2% | remaining binding at 10 µM [2]: 0.05% | remaining binding at 10 µM [3]: 0.15% | remaining binding at 10 µM [4]: 0.2% | remaining binding at 10 µM (ABL1-nonphosphorylated): 0.3% | remaining binding at 10 µM (ALK): 22% | remaining binding at 10 µM (ASK2): 7% | remaining binding at 10 µM (BRAF): 0.5% | remaining binding at 10 µM (CDC2L2): 28% | remaining binding at 10 µM (CTK): 3.4% | remaining binding at 10 µM [5]: 0% | remaining binding at 10 µM (EPHA1): 0.35% | remaining binding at 10 µM (EPHA7): 0.55% | remaining binding at 10 µM (EPHB1): 0.15% | remaining binding at 10 µM (EPHB4): 0% | remaining binding at 10 µM (ERBB2): 0% | remaining binding at 10 µM (FLT3(D835H)): 3.2% | remaining binding at 10 µM (IKK-beta): 14% | remaining binding at 10 µM [6]: 0.35% | remaining binding at 10 µM (JNK1): 28% | remaining binding at 10 µM (KIT(L576P)): 1.2% | remaining binding at 10 µM (KIT(V559D)): 0% | remaining binding at 10 µM (KIT(V559D, T670I)): 0.3% | remaining binding at 10 µM (MAP3K1): 29% | remaining binding at 10 µM (MAP3K15): 8.4% | remaining binding at 10 µM (MLK3): 5.8% | remaining binding at 10 µM (RAF1): 12% | remaining binding at 10 µM (ROS1): 17% | remaining binding at 10 µM (SIK): 0.35% | remaining binding at 10 µM (STK36): 1.6% | remaining binding at 10 µM (SYK): 4.4% | remaining binding at 10 µM (TAOK3): 29% | remaining binding at 10 µM (TNIK): 4.8% | remaining binding at 10 µM (TNK1): 12% | remaining binding at 10 µM (TRKC): 7.2% | remaining binding at 10 µM (ZAK): 0.55%
